Experimental data published in patent US9512107B2, “Therapeutically active compositions and their methods of use” (Agios Pharmaceuticals, Inc., priority 2012, dated 2016).

Tests used:
[1] = test system: U87MG pLVX-IDH2 R140Q-neo cells; assay: U87MG pLVX-IDH2 R140Q-neo cell based assay, 2-HG in media by LC-MS at 48 hours; conditions: for IC50: Homo sapiens, U-87 MG
Method: U87MG pLVX-IDH2 R140Q-neo cells are grown in T125 flasks in DMEM containing 10% FBS, 1× penicillin/streptomycin and 500 μg/mL G418. They are harvested by trypsin and seeded into 96 well white bottom plates at a density of 5000 cell/well in 100 μl/well in DMEM with 10% FBS. No cells are plated in columns 1 and 12. Cells are incubated overnight at 37° C. in 5% CO2. The next day compounds are made up at 2× concentration and 100 ul are added to each cell well. The final concentration of DMSO is 0.2% and the DMSO control wells are plated in row G. The plates are then placed in the incubator for 48 hours. At 48 hours, 100 ul of media is removed from each well and analyzed by LC-MS for 2-HG concentrations. The cell plate is placed back in the incubator for another 24 hours. At 72 hours post compound addition, 10 mL/plate of Promega Cell Titer Glo reagent is thawed and mixed. The cell plate is removed from the incubator and allowed to equilibrate to room temperature. Then 100 ul of reagent is added to each well of media. The cell plate is then placed on an orbital shaker for 10 minutes and then allowed to sit at room temperature for 20 minutes. The plate is then read for luminescence with an integration time of 500 ms to determine compound effects on growth inhibition.

IDH2 R140Q = target: T1, IDH2 R140Q (Homo sapiens, UniProt P48735, R140Q); assay: IDH2 R140Q enzymatic assay (cofactor depletion, similar format); format: biochemical; conditions: read-out: Enz R140Q
T1 sequence (P48735 40-452 R140Q): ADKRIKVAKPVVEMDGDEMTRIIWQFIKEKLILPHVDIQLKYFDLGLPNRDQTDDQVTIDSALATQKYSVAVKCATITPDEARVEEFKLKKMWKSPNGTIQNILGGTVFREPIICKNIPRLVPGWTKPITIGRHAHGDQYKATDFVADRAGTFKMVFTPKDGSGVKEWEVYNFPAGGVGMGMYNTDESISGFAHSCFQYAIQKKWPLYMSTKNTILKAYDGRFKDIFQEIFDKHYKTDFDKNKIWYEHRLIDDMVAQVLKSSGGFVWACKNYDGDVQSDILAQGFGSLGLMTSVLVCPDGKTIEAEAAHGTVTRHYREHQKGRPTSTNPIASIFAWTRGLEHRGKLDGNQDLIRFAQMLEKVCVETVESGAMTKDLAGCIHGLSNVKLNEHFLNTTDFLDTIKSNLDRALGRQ
Method: [The source words this procedure for another variant and says it was used here with some conditions changed.] Compounds are assayed for IDH2 R172K inhibitory activity through a cofactor depletion assay. […] The reaction is terminated by the addition of a second enzyme, diaphorase, and a corresponding substrate, resazurin. Diaphorase reduces resazurin to the highly fluorescent resorufin with the concomitant oxidation of NADPH to NADP, both halting the IDH2 reaction by depleting the available cofactor pool and facilitating quantitation of the amount of cofactor remaining after a specific time period through quantitative production of an easily detected fluorophore.
The test compound is then incubated for one hour at room temperature with the enzyme; before starting the IDH2 reaction with the addition of 10 μl of substrate mix containing 50 μM NADPH and 6.3 mM α-KG in the buffer described above. After a further one hour of incubation at room temperature, the reaction is halted and the remaining NADPH measured through conversion of resazurin to resorufin by the addition of 25 μl Stop Mix (36 μg/ml diaphorase enzyme and 60 μM resazurin; in buffer).

## CC(C)(O)CNc1nc(Nc2ccnc(C(F)(F)F)c2)nc(-c2ccccc2F)n1 [Compound 319, 1-(4-(2-fluorophenyl)-6-(2-(trifluoromethyl)pyridin-4-ylamino)-1,3,5-triazin-2-ylamino)-2-methylpropan-2-ol]
[1]
  IC50: < 100 nM
IDH2 R140Q
  IC50: 100 to 1000 nM

## CC(C)CNc1nc(Nc2cncc(F)c2)nc(-c2ccccc2F)n1 [Compound 320, 6-(2-fluorophenyl)-N^2-(5-fluoropyridin-3-yl)-N^4-isobutyl-1,3,5-triazine-2,4-diamine]
[1]
  IC50: < 100 nM
IDH2 R140Q
  IC50: < 100 nM

## CC(C)Nc1nc(Nc2cncc(C#N)c2)nc(-c2ccccc2F)n1 [Compound 321, 5-(4-(2-fluorophenyl)-6-(isopropylamino)-1,3,5-triazin-2-ylamino)nicotinonitrile]
[1]
  IC50: < 100 nM
IDH2 R140Q
  IC50: < 100 nM

## Fc1cncc(Nc2nc(NC3CCC3)nc(-c3ccccn3)n2)c1 [Compound 322, N^2-cyclobutyl-N^4-(5-fluoropyridin-3-yl)-6-(pyridin-2-yl)-1,3,5-triazine-2,4-diamine]
[1]
  IC50: < 100 nM
IDH2 R140Q
  IC50: 100 to 1000 nM

## Fc1cncc(Nc2nc(NC3CCC3)nc(-c3cccc(Cl)n3)n2)c1 [Compound 323, 6-(6-chloropyridin-2-yl)-N^2-cyclobutyl-N^4-(5-fluoropyridin-3-yl)-1,3,5-triazine-2,4-diamine]
[1]
  IC50: < 100 nM
IDH2 R140Q
  IC50: 100 to 1000 nM

## CC(O)C(=O)Nc1nc(Nc2ccccc2)nc(-c2ccccc2)n1 (stereo not shown) [Compound 324, 2-hydroxy-N-(4-phenyl-6-(phenylamino)-1,3,5-triazin-2-yl)propanamide]
[1]
  IC50: 1000 to 10000 nM
IDH2 R140Q
  IC50: 100 to 1000 nM

## Fc1ccc(Nc2nc(NC3CCC3)nc(-c3cccc(Cl)n3)n2)cn1 [Compound 325, 6-(6-chloropyridin-2-yl)-N^2-cyclobutyl-N^4-(6-fluoropyridin-3-yl)-1,3,5-triazine-2,4-diamine]
[1]
  IC50: < 100 nM
IDH2 R140Q
  IC50: < 100 nM

## CC(C)Nc1nc(Nc2cccc(S(C)(=O)=O)c2)nc(-c2cccc(Cl)n2)n1 [Compound 326, 6-(6-chloropyridin-2-yl)-N^2-isopropyl-N^4-(3-(methylsulfonyl)phenyl)-1,3,5-triazine-2,4-diamine]
[1]
  IC50: < 100 nM
IDH2 R140Q
  IC50: 100 to 1000 nM

## CC(C)Nc1nc(Nc2ccncc2)nc(-c2cccc(N)c2)n1 [Compound 327]
[1]
  IC50: 100 to 1000 nM
IDH2 R140Q
  IC50: 100 to 1000 nM

## CC(C)Nc1nc(Nc2ccncc2)nc(-c2cccc(O)c2)n1 [Compound 328, 3-[4-Isopropylamino-6-(pyridin-4-ylamino)-[1,3,5]triazin-2-yl]-phenol]
[1]
  IC50: < 100 nM
IDH2 R140Q
  IC50: < 100 nM

## CC(C)Nc1nc(Nc2cncc(C(F)(F)F)c2)nc(-c2ccccc2)n1 [Compound 329, N^2-isopropyl-6-phenyl-N^4-(5-(trifluoromethyl)pyridin-3-yl)-1,3,5-triazine-2,4-diamine]
[1]
  IC50: < 100 nM
IDH2 R140Q
  IC50: < 100 nM

## Clc1cncc(Nc2nc(NC3CCC3)nc(-c3ccccn3)n2)c1 [Compound 330, N^2-(5-chloropyridin-3-yl)-N^4-cyclobutyl-6-(pyridin-2-yl)-1,3,5-triazine-2,4-diamine]
[1]
  IC50: < 100 nM
IDH2 R140Q
  IC50: 100 to 1000 nM

## CNc1cccc(-c2nc(Nc3ccccc3)nc(NC(C)C)n2)n1 [Compound 331, N^2-isopropyl-6-(6-(methylamino)pyridin-2-yl)-N^4-phenyl-1,3,5-triazine-2,4-diamine]
[1]
  IC50: < 100 nM
IDH2 R140Q
  IC50: 100 to 1000 nM

## CC(C)Nc1nc(Nc2cn(C)cn2)nc(-c2ccccc2)n1 [Compound 332, N^2-isopropyl-N^4-(1-methyl-1H-imidazol-4-yl)-6-phenyl-1,3,5-triazine-2,4-diamine]
[1]
  Cell R140Q: No Fit
IDH2 R140Q
  IC50: > 10000 nM

## Cc1ncc(Nc2nc(NC(C)C)nc(-c3ccccc3)n2)cn1 [Compound 343, N^2-isopropyl-N^4-(2-methylpyrimidin-5-yl)-6-phenyl-1,3,5-triazine-2,4-diamine]
[1]
  IC50: 100 to 1000 nM
IDH2 R140Q
  IC50: 100 to 1000 nM

## COC(=O)c1cc(Nc2nc(NC(C)C)nc(-c3ccccc3)n2)ccn1 [Compound 346]
[1]
  IC50: 100 to 1000 nM
IDH2 R140Q
  IC50: < 100 nM

## O[C@H]1CCC[C@H]1Nc1nc(Nc2ccccc2)nc(-c2ccccc2)n1 [Compound 352, (1S,2R)-2-(4-phenyl-6-(phenylamino)-1,3,5-triazin-2-ylamino)cyclopentanol]
[1]
  IC50: < 100 nM
IDH2 R140Q
  IC50: < 100 nM

## CC(C)Nc1nc(Nc2cncnc2)nc(-c2cccc(Cl)n2)n1 [Compound 353, 6-(6-chloropyridin-2-yl)-N^2-isopropyl-N^4-(pyrimidin-5-yl)-1,3,5-triazine-2,4-diamine]
[1]
  IC50: < 100 nM
IDH2 R140Q
  IC50: 100 to 1000 nM

## CC(C)Nc1nc(Nc2ccnc(Cl)c2)nc(-c2cccc(Cl)n2)n1 [Compound 354, 6-(6-chloropyridin-2-yl)-N^2-(2-chloropyridin-4-yl)-N^4-isopropyl-1,3,5-triazine-2,4-diamine]
[1]
  IC50: < 100 nM
IDH2 R140Q
  IC50: 100 to 1000 nM

## CC(C)Nc1nc(Nc2ccnc(C#N)c2)nc(-c2cccc(Cl)n2)n1 [Compound 355, 4-(4-(6-chloropyridin-2-yl)-6-(isopropylamino)-1,3,5-triazin-2-ylamino)picolinonitrile]
[1]
  IC50: < 100 nM
IDH2 R140Q
  IC50: 100 to 1000 nM

## FC(F)(F)c1cc(Nc2nc(NC3COC3)nc(-c3cccc(Cl)n3)n2)ccn1 [Compound 356, 6-(6-Chloro-pyridin-2-yl)-N-oxetan-3-yl-N′-(2-trifluoromethyl-pyridin-4-yl)-[1,3,5]triazine-2,4-diamine]
[1]
  IC50: < 100 nM
IDH2 R140Q
  IC50: 100 to 1000 nM

## Cc1cccc(-c2nc(Nc3cccc(S(C)(=O)=O)c3)nc(NC(C)C)n2)n1 [Compound 359, N^2-isopropyl-6-(6-methylpyridin-2-yl)-N^4-(3-(methylsulfonyl)phenyl)-1,3,5-triazine-2,4-diamine]
[1]
  IC50: 100 to 1000 nM
IDH2 R140Q
  IC50: 100 to 1000 nM

## C#Cc1cccc(-c2nc(Nc3cccc(S(C)(=O)=O)c3)nc(NC(C)C)n2)n1 [Compound 360, 6-(6-ethynylpyridine-2-yl)-N^2-isopropyl-N^4-(3-(methylsulfonyl)phenyl)-1,3,5-triazine-2,4-diamine]
[1]
  IC50: 100 to 1000 nM
IDH2 R140Q
  IC50: 100 to 1000 nM

## COc1cccc(-c2nc(Nc3cccc(S(C)(=O)=O)c3)nc(NC(C)C)n2)n1 [Compound 361, N^2-isopropyl-6-(6-methoxypyridin-2-yl)-N^4-(3-(methylsulfonyl)phenyl)-1,3,5-triazine-2,4-diamine]
[1]
  IC50: 100 to 1000 nM
IDH2 R140Q
  IC50: 100 to 1000 nM

## O=C1C=C(Nc2nc(Nc3ccccc3)nc(-c3ccccc3)n2)CCC1 [Compound 362, 3-(4-phenyl-6-(phenylamino)-1,3,5-triazin-2-ylamino)cyclohex-2-enone]
[1]
  IC50: 100 to 1000 nM
IDH2 R140Q
  IC50: 100 to 1000 nM

## CC(C)(C)CNc1nc(Nc2ccc(F)nc2)nc(-c2ccccn2)n1 [Compound 363, N^2-(6-fluoropyridin-3-yl)-N^4-neopentyl-6-(pyridin-2-yl)-1,3,5-triazine-2,4-diamine]
[1]
  IC50: < 100 nM
IDH2 R140Q
  IC50: 100 to 1000 nM

## CNc1cccc(-c2nc(Nc3cccc(S(C)(=O)=O)c3)nc(NC(C)C)n2)n1 [Compound 364, N^2-isopropyl-6-(6-(methylamino)pyridin-2-yl)-N^4-(3-(methylsulfonyl)phenyl)-1,3,5-triazine-2,4-diamine]
[1]
  IC50: 100 to 1000 nM
IDH2 R140Q
  IC50: 1000 to 10000 nM

## CC(C)Nc1nc(Nc2cccc(S(C)(=O)=O)c2)nc(-c2cccc(C(F)F)n2)n1 [Compound 366, 6-(6-(difluoromethyl)pyridin-2-yl)-N^2-isopropyl-N^4-(3-(methylsulfonyl)phenyl)-1,3,5-triazine-2,4-diamine]
[1]
  IC50: < 100 nM
IDH2 R140Q
  IC50: 100 to 1000 nM

## CC(C)(O)CNc1nc(Nc2cncc(C(F)(F)F)c2)nc(-c2cccc(Cl)n2)n1 [Compound 367, 1-(4-(6-chloropyridin-2-yl)-6-(5-(trifluoromethyl)pyridin-3-ylamino)-1,3,5-triazin-2-ylamino)-2-methylpropan-2-ol]
[1]
  IC50: < 100 nM
IDH2 R140Q
  IC50: 100 to 1000 nM
